Results on 4 molecules are retold here after patent US9339509B2, “Methods of use to orally and topically treat acne and other skin conditions by administering a 19-nor containing vitamin D analog with or without a retinoid” (Wisconsin Alumni Research Foundation, priority 2006, dated 2016).

Test [1] deals with Rhino mouse. The experiment in a line: Comedolytic effect of topical application to the Rhino mouse (comedone area). The class given is in vivo. As to conditions: for comedone area (FIG. 5): 30 vol % ethanol/70% propylene glycol; for comedone area relative to vehicle-treated group (FIG. 11): 72 h after final dose. The source says:
(§1) Rhino mice were used to topically and orally test the compounds and compositions of the invention. The Rhino mouse is a well-established animal model used to study the comedolytic effects of anti-acne agents including retinoids. (See Boulcier M et al., Experimental Models in Skin Pharmacology, 1990, In Pharmacological Reviews 42:127-15). Mirshahpanah and Maibach, 2007, Cutaneous and Ocular Toxicology 26:195-202). The Rhino mouse model was used to study the therapeutic potential of 2-Methylene-19-nor-20(S)-1α-hydroxy-bishomopregnacalciferol (2MBisP), 19-Nor-26,27-dimethylene-20(S)-2-methylene-1α,25-dihydroxyvitamin D3 (CAGE-3), NEL, 24R-2MD2, Vit-III (17-20E), 2MPregna, 2MP, 20R-2MbisP, 2MTrisP, FF-44, FF-55, HPBS, VD-03 and atRA.
(§2) Animals and dose administration. Rhino mice 6-10 weeks old were dosed via the oral and/or topical route. In the majority of studies, the mice were dosed daily. In one topical study, the efficacy of daily versus intermittent (Monday/Wednesday/Friday) dosing was compared. The mice were weighed three times per week and doses were adjusted weekly based on body weight. The topical formulations were applied to the back of the animal in a maximum volume of 110 μL. The topical formulations were made by mixing the APIs with a topical carrier comprising 70 vol % propylene glycol and 30 vol % ethanol or 30 vol % propylene glycol and 70 vol % ethanol, as indicated. The topical vehicle control was the vehicle carrier solution matched to the formulation containing API and vehicle carrier.
(§3) The oral formulation was made by mixing the APIs with Wesson® soybean oil or NeoBee® oil. The oral dose was delivered to the back of the mouth of each mouse. Mice were sacrificed 4 hours after the final oral dose and 72 hours after the final topical dose. At sacrifice, the dorsal skin was collected for histological studies.
(§4) Comedolytic effect. The extent of the comedolytic effect (i.e., efficacy) was assessed by measuring the average area of the comedones, whereby the smaller the area, the larger the effect. The comedone area was determined by histological analysis of tissue sections based on a method developed in our lab (see FIG. 2). Skin was fixed overnight in 4% paraformaldehyde at 4 deg. C. with gentle agitation and dehydrated the next day into 100% methanol. Samples were embedded in paraffin and a total of nine 10 micron sections 150 microns apart were prepared from each Rhino mouse. Five of the nine sections were digitally imaged (6× magnification) for comedone analysis using Metamorph Imaging Software (trace function). The perimeter of each comedone on the images taken from the 5 sections was then traced using a Wacom Intuos 3 Graphics Tablet interfaced with the software. The number of pixels comprising the area of each individual comedone was obtained and transferred to an Excel spreadsheet, and the mean number of pixels per comedone was obtained for each Rhino mouse. For comedones that were completely healed (area=0) a pixel value approaching 0 (<10) was entered into the spreadsheet. The individual comedone area average for each mouse was then used to calculate the treatment group mean. Results in the figures are expressed in terms of mean±standard error of the mean.
Preparation of topical formulations containing 2MBisP, CAGE-3, 24R-2MD2, VitIII (17-20E), NEL, VD-03, 2MPregna, 2MP, 20R-2MBisP, 2MTrisP, FF-44, FF-55, and HPBS. Separate concentrated ethanolic stocks of 2MBisP, CAGE-3, 24R-2MD2, VitIII (17-20E) and NEL were diluted to a final concentration containing 70 vol % propylene glycol and 30 vol % ethanol or 30 vol % propylene glycol and 70 vol % ethanol as the excipient carrier system. The mixture was thoroughly mixed. The topical dosing formulation delivered the desired dosing amount of drug on a per kilogram body weight basis. A dose ranging from 100-110 μL in volume was administered to the back of the mouse. An average weight of 24 or 30 g/mouse was assumed in dose volume calculations. […]

For test [2], the system named is Rhino mouse. Briefly: Combination of oral atRA and topical 2MBisP in the Rhino mouse (comedone area, skin morphology). The class given is in vivo. As for the experimental part:
as §2, §3
as §4, with “the mean. […]” for “the mean.”
Preparation of oral atRA dosing formulation. […] The concentration of atRA in that diluted stock solution was determined spectrophotometrically, whereby the molar extinction coefficient=45,200 and λmax=350. The purity of atRA was determined to be >99% by HPLC. […]

The test system of test [3] is Rhino mouse. The experiment in a line: Comedolytic effect of oral administration to the Rhino mouse (comedone area). It is filed as in vivo.
Description: as §1, §2, §3, §4
Preparation of oral dosing solutions containing 2MBisP, CAGE-3, 24R-2MD2, VitIII (17-20E) and NEL. Separate concentrated stocks of 2MBisP, CAGE-3, 24R-2MD2, VitIII (17-20E) and NEL were obtained in ethanol. The concentration was determined spectrophotometrically using a molar extinction coefficient=42,000 and a λmax=252.7. […] The final dose was delivered in ≦50 μL of oil.
Preparation of oral atRA dosing formulation. A concentrated stock solution containing atRA was prepared in dichloromethane. The atRA concentrated stock solution was diluted into ethanol. The concentration of atRA in that diluted stock solution was determined spectrophotometrically, whereby the molar extinction coefficient=45,200 and λmax=350. The purity of atRA was determined to be >99% by HPLC. […]

Test [4] relates to retinoic acid receptors (RARs). As to conditions: Repa J J et al., 1993; cited from earlier work.
[5] abbreviates: daily topical 3 weeks, 70 vol % ethanol/30 vol % propylene glycol, 220 nmole/kgBW/day.

Each structure is given as a SMILES string. Entries after “also recorded” stand apart in the source; their conditions may differ.

For `C=C1[C@H](O)CC(=C/C=C2\CCC[C@]3(C)C([C@@H](C)CC)CC[C@@H]23)C[C@H]1O` (stereo partly drawn) [2MBisP, 2-methylene-19-nor-20(S)-1α-hydroxy-bishomopregnacalciferol], the response vs control in vivo at 0.022 µmol/kg in the test on Rhino mouse [1] (Mus musculus, 504 h, daily topical ca. 3 weeks, 70 vol % ethanol/30 vol % propylene glycol, dose 22 nmol/kg, mean ± SEM, read-out: Comedone Area (% Vehicle)) is 97 ± 9%. The response vs control in vivo at 0.069 µmol/kg in the test on Rhino mouse [1] (Mus musculus, 504 h, daily topical ca. 3 weeks, 70 vol % ethanol/30 vol % propylene glycol, dose 69 nmol/kg, mean ± SEM, read-out: Comedone Area (% Vehicle)) was determined as 127 ± 12%. Also, in the test on Rhino mouse [1] (Mus musculus, 504 h, daily topical ca. 3 weeks, 70 vol % ethanol/30 vol % propylene glycol, dose 217 nmol/kg, mean ± SEM, read-out: Comedone Area (% Vehicle)), the response vs control in vivo at 0.217 µmol/kg turned out to be 49 ± 3%. Besides, the response vs control in vivo at 0.694 µmol/kg in the test on Rhino mouse [1] (Mus musculus, 504 h, daily topical ca. 3 weeks, 70 vol % ethanol/30 vol % propylene glycol, dose 694 nmol/kg, mean ± SEM, read-out: Comedone Area (% Vehicle)) is 35 ± 4%. Besides, the response vs control in vivo at 2.187 µmol/kg with Rhino mouse [1] (Mus musculus, 504 h, daily topical ca. 3 weeks, 70 vol % ethanol/30 vol % propylene glycol, dose 2187 nmol/kg, mean ± SEM, read-out: Comedone Area (% Vehicle)) is 32 ± 7%. For the same molecule, the “comedone area (FIG. 5)” value is given as “no effect” in the test on Rhino mouse [1] (daily topical 3 weeks, 220 nmole/kgBW/day) and “near-maximal reduction in comedone area” with Rhino mouse [1] (daily topical 3 weeks, 653 nmole/kgBW/day). In addition, the “comedone area (FIG. 7)” value with Rhino mouse [1] (daily topical 3 weeks, 70 vol % ethanol/30 vol % propylene glycol, 22 nmole/kgBW/day) was “no effect”; in the test with Rhino mouse [1] (setting [5]), “significant reduction in comedone area”. In the test on Rhino mouse [1] (daily topical 3 weeks, 70 vol % ethanol/30 vol % propylene glycol, 217 nmole/kgBW/day), the “comedone area relative to vehicle-treated group (FIG. 8, 9, 10)” value was “significant reduction in comedone area”. The “reduction in comedone area (FIG. 6)” value in the test on Rhino mouse [1] (setting [5]) is listed as over 50%. Moreover, in the test with Rhino mouse [1] (daily topical 3 weeks, 70 vol % ethanol/30 vol % propylene glycol, 653 nmole/kgBW/day), the “comedone area (FIG. 6)” value is on record as “greater reduction in comedone area as compared to the lower dose”. Further, the “comedone area relative to vehicle-treated group (FIG. 8)” value in the test with Rhino mouse [1] (daily topical 3 weeks, 70 vol % ethanol/30 vol % propylene glycol, 694 nmole/kgBW/day) is “significant reduction in comedone area”. For the same molecule, the “comedone area relative to vehicle-treated group (FIG. 11)” value in the test on Rhino mouse [1] (topical 217 nmole/kgBW daily (total of 22 doses), 70 vol % ethanol/30 vol % propylene glycol) is “significant reduction in comedone area”; in the test with Rhino mouse [1] (topical 217 nmole/kgBW intermittently Monday, Wednesday, Friday (total of 10 doses), 70 vol % ethanol/30 vol % propylene glycol), “significant reduction in comedone area”. The “comedone area vs vehicle control (FIG. 3, FIG. 4)” value with Rhino mouse [1] (topical 3 weeks, 30 vol % ethanol/70 vol % propylene glycol, 5.4 μg/day (ca. 800 nmole/kgBW/day)) is given as “reduction in the comedone area; also recorded: reduced comedone area”. Besides, the “potency in the reduction of comedone area relative to 20R-2MBisP” value in the test with Rhino mouse [1] (topical, 70 vol % ethanol/30 vol % propylene glycol, more potent than the 20R compound) was “approximately ½”. In the test with Rhino mouse [2] (2MBisP alone topically 21 days (0.22 μmole/kgBW/day, 30 vol % ethanol/70 vol % propylene glycol) with oral vehicle 24 days), the “comedone area vs vehicle control group (FIG. 15)” value is recorded as “lacked significant efficacy”. The “skin morphology, H&E sections (FIG. 16)” value with Rhino mouse [2] (female Rhino mice, 2MBisP alone topically 0.22 μmole/kgBW/day, 30% ethanol/70% propylene glycol) is on record as “did not alter skin morphology significantly”. The “comedone area (FIG. 12)” value in the test on Rhino mouse [3] (oral daily 24 days, 522 nmole/kgBW/day) is “reduction in the comedone area”.
`CC1=C(/C=C/C(C)=C/C=C/C(C)=C\C(=O)O)C(C)(C)CCC1` [13-cis retinoic acid, 13-cis-retinoic acid]: the “binding to the RARs” value in test [4] is recorded as “does not bind”.
On to `C=C1[C@H](O)CC(=C/C=C2\CCC[C@]3(C)/C(=C(\C)CCCC(C)(C)O)CC[C@@H]23)C[C@H]1O` [VitIII (17-20E), 2-methylene-1α,25-dihydroxy-(17E)-17(20)-dehydro-19-nor-vitamin D3], for which the response vs control in vivo at 0.024 µmol/kg with Rhino mouse [1] (Mus musculus, 504 h, daily topical ca. 3 weeks, 70 vol % ethanol/30 vol % propylene glycol, dose 24 nmol/kg, mean ± SEM, read-out: Comedone Area (% Vehicle)) is 116 ± 15%. In addition, in the test on Rhino mouse [3] (oral daily 24 days, 24 nmole/kgBW/day), the “comedone area (FIG. 13)” value is “no significant reduction in comedone area”.
Take `CC1=C(/C=C/C(C)=C/C=C/C(C)=C/C(=O)O)C(C)(C)CCC1` [atRA, all-trans-retinoic acid, reference compound]: the “comedone area vs vehicle control group (FIG. 15)” value in the test with Rhino mouse [2] (atRA alone orally 24 days (830 nmole/kgBW/day) with topical vehicle 21 days) is on record as “lacked significant efficacy”. Moreover, the “skin morphology vs vehicle control, H&E sections (FIG. 16)” value with Rhino mouse [2] (female Rhino mice, atRA alone orally 830 nmole/kgBW/day in soybean oil) was “did not alter skin morphology significantly”. For the same molecule, the “comedone size vs vehicle control (FIG. 2)” value in the test on Rhino mouse [3] (oral, 3 weeks, 0.83 μmole/kgBW) is on record as “insignificant reduction in comedone size”; with Rhino mouse [3] (oral, 3 weeks, 16.6 μmole/kgBW), “maximal reduction in comedone size”. In addition, the “comedone area, dose dependence (FIG. 2)” value with Rhino mouse [3] (oral, 3 weeks, various doses) is on record as “dose-dependent reduction in comedone area”.
